DC50 data for 39 molecules are collected here from patent US12686687B2, “Compounds and uses thereof” (Foghorn Therapeutics Inc., priority 2019, dated 2026).

Molecules are shown by their SMILES.

One assay addresses T1, Nanoluciferase-BRD9 fusion protein (3×FLAG-NLuc-BRD9) in SYO-1 cells (Homo sapiens, UniProt Q9H8M2).
T1 construct: expressed in transfected cells; host or cells: SYO-1
T1 sequence (Q9H8M2 1-597): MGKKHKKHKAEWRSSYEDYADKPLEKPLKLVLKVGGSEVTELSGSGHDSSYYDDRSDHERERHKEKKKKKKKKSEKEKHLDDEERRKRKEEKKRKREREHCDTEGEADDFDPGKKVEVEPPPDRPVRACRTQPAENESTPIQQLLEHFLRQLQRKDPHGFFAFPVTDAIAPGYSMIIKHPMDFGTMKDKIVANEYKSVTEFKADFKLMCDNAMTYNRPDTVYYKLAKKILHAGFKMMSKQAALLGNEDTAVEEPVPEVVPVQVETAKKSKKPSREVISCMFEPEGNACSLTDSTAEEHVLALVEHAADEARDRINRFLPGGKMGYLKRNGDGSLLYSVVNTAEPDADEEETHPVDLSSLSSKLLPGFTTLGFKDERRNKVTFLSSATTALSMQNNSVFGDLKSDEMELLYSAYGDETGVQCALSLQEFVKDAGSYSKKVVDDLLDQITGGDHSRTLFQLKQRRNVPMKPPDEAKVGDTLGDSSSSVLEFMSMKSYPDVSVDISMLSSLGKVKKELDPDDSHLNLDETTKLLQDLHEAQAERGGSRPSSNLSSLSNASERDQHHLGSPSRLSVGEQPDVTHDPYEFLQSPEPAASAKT
Description: SYO1 BRD9 NanoLuc degradation assay. It is filed as cell-based. The conditions noted are these: Table 6B; SYO-1 cells expressing 3×FLAG-NLuc-BRD9, 6 hours incubation, 1 μM top dose; read-out: SYO1 BRD9-NanoLuc degradation IC50. In a few lines: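 Stable SYO-1 line expressing 3×FLAG-NLuc-BRD9 was seeded at 8000 cells/well, then treated next day for 6 h with 10-point 3-fold dilutions (top 1 μM final). Nano-Glo luminescence was read. % inhibition was normalised to DMSO (high control) and 1 μM reference BRD9 degrader (low control).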
On to `COc1cc(-c2cn(C)c(=O)c3cc(C(=O)NC4CCN(CCCCCOc5ccc6c(c5)C(=O)N(C5CCC(=O)NC5=O)C6=O)CC4(F)F)sc23)cc(OC)c1CN(C)C` (stereo not drawn) [Compound D90], for which the DC50 is below 10 nM.
On to `COc1cc(-c2cn(C)c(=O)c3cc(C(=O)NC4CCN(C(=O)CN5CCC6(C5)CN(c5ccc7c(c5)C(=O)N(C5CCC(=O)NC5=O)C7=O)C6)CC4(F)F)sc23)cc(OC)c1CN(C)C` (stereo not drawn) [Compound D45], for which the DC50 is above 1000 nM.
For `COc1cc(-c2cn(C)c(=O)c3cc(NC4CCN(C(=O)CCCCOc5ccc6c(c5)C(=O)N(C5CCC(=O)NC5=O)C6=O)CC4)sc23)cc(OC)c1CN(C)C` (stereo not drawn) [Compound D71], the DC50 was above 10 nM.
On to `COc1cc(-c2cn(C)c(=O)c3cc(C(=O)NCC4CC5(CCN(CCN6CCN(c7ccc8c(c7)C(=O)N(C7CCC(=O)NC7=O)C8=O)CC6)CC5)O4)sc23)cc(OC)c1CN(C)C` (stereo not drawn) [Compound D62], for which the DC50 was above 10 nM.
For `COc1cc(-c2cn(C)c(=O)c3cc(C(=O)NC4CCN(C(=O)CN5CCN(c6ccc7c(c6)C(=O)N(C6CCC(=O)NC6=O)C7=O)CC5)CC4)sc23)cc(OC)c1CN(C)C` (stereo not drawn) [Compound D77], the DC50 was below 10 nM.
`COc1cc(-c2cn(C)c(=O)c3cc(C(=O)NC4CC5(CCN(C(=O)CCN6CCN(c7ccc8c(c7)C(=O)N(C7CCC(=O)NC7=O)C8=O)CC6)CC5)C4)sc23)cc(OC)c1CN(C)C` (stereo not drawn) [Compound D40]: the DC50 is below 10 nM.
In the case of `COc1cc(-c2cn(C)c(=O)c3cc(C(=O)NC4CCN(CC(F)(F)CCCOc5ccc6c(c5)C(=O)N(C5CCC(=O)NC5=O)C6=O)CC4)sc23)cc(OC)c1CN(C)C` (stereo not drawn) [Compound D83], the DC50 was below 10 nM.
For the molecule `COc1cc(-c2cn(C)c(=O)c3cc(C(=O)NCC4CC45CCN(CCCN4CCN(c6ccc7c(c6)C(=O)N(C6CCC(=O)NC6=O)C7=O)CC4)CC5)sc23)cc(OC)c1CN(C)C` (stereo not drawn) [Compound D56], the DC50 is above 10 nM.
Same read-out and setting: for `COc1cc(-c2cn(C)c(=O)c3occc23)cc(OC)c1CN1CC(CN2CCC3(CC2)CN(c2ccc4c(c2)C(=O)N(C2CCC(=O)NC2=O)C4)C3)C1` (stereo not drawn) [Compound D21] the value was below 10 nM.
As to `COc1cc(-c2cn(C)c(=O)c3cc(C(=O)NC4CC5(C4)CN(C(=O)CCN4CCN(c6ccc7c(c6)C(=O)N(C6CCC(=O)NC6=O)C7=O)CC4)C5)sc23)cc(OC)c1CN(C)C` (stereo not drawn) [Compound D74], the DC50 is below 10 nM.
On the same count and under the same terms, the value for `COc1cc(-c2cn(C)c(=O)c3cc(C(=O)NC4CCN(CCCCCOc5cccc6c5C(=O)N(C5CCC(=O)NC5=O)C6=O)CC4F)sc23)cc(OC)c1CN(C)C` (stereo not drawn) [Compound D84] was below 10 nM; that for `COc1cc(-c2cn(C)c(=O)c3cc(C(=O)NC4CC5(CCN(CCCN6CCN(c7ccc8c(c7)C(=O)N(C7CCC(=O)NC7=O)C8=O)CC6)C5)C4)sc23)cc(OC)c1CN(C)C` (stereo not drawn) [Compound D73] was below 10 nM; that for `COc1cc(-c2cn(C)c(=O)c3cc(C(=O)NC4CCN(C(=O)CCN5CCN(c6ccc7c(c6)C(=O)N(C6CCC(=O)NC6=O)C7=O)CC5)CC4)sc23)cc(OC)c1CN(C)C` (stereo not drawn) [Compound D78] was below 10 nM.
The same measure, in the same setting: for `COc1cc(-c2cn(C)c(=O)c3cc(C(=O)NC4CCN(CCCCCOc5ccc6c(c5)C(=O)N(C5CCC(=O)NC5=O)C6=O)CC4)sc23)cc(OC)c1CN(C)C` (stereo not drawn) [Compound D89] the value was below 10 nM.
With `COc1cc(-c2cn(C)c(=O)c3cc(C(=O)NCC4CC5CN(CCCN6CCN(c7ccc8c(c7)C(=O)N(C7CCC(=O)NC7=O)C8=O)CC6)CC5C4)sc23)cc(OC)c1CN(C)C` (stereo not drawn) [Compound D42], the DC50 is below 10 nM.
In the case of `COc1cc(-c2cn(C)c(=O)c3cc(C(=O)NC4CCN(C(C)=O)CC4)sc23)cc(OC)c1CN1CCC(CCN2CCN(c3ccc4c(c3)C(=O)N(C3CCC(=O)NC3=O)C4=O)CC2)CC1` (stereo not drawn) [Compound D27], the DC50 was below 10 nM.
`COc1cc(-c2cn(C)c(=O)c3cc(C(=O)NC4CC5(CCN(CCN6CCN(c7ccc8c(c7)C(=O)N([C@H]7CCC(=O)NC7=O)C8=O)CC6)C5)C4)sc23)cc(OC)c1CN(C)C` (stereo partly drawn) [Compound D66]: the DC50 is below 10 nM.

The assay is the same for the next values; noted with them: Table 6C; SYO-1 cells expressing 3×FLAG-NLuc-BRD9, 6 hours incubation, 1 μM top dose; read-out: SYO1 BRD9-NanoLuc degradation IC50.
For `COc1cc(-c2cn(C)c(=O)c3cc(C(=O)NC4CCN(CCN5CCN(c6ccc7c(c6)C(=O)N(C6CCC(=O)NC6=O)C7)CC5)CC4)sc23)cc(OC)c1CN(C)C` (stereo not drawn) [Compound D130], the DC50 is below 10 nM.
`COc1cc(-c2cn(C)c(=O)c3cc(C(=O)NC4CCN(CCN5CCC(c6ccc7c(c6)CN(C6CCC(=O)NC6=O)C7=O)CC5)CC4(F)F)sc23)cc(OC)c1CN(C)C` (stereo not drawn) [Compound D195]: the DC50 was below 10 nM.
Still for that read-out and setting: the value for `COc1cc(-c2cn(C)c(=O)c3cc(C(=O)N[C@@H]4CCN(c5ccc6c(c5)C(=O)N(C5CCC(=O)NC5=O)C6)CC4(F)F)sc23)cc(OC)c1CN(C)C` (stereo partly drawn) [Compound D156] was below 10 nM.
Consider `COc1cc(-c2cn(C)c(=O)c3cc(C(=O)NC4CCN(CCC5CCN(c6ccc7c(c6)CN(C6CCC(=O)NC6=O)C7=O)CC5)CC4(F)F)sc23)cc(OC)c1CN(C)C` (stereo not drawn) [Compound D102], for which the DC50 is below 10 nM.
For the molecule `COc1cc(-c2cn(C)c(=O)c3cc(C(=O)N[C@H]4CCN(c5ccc6c(c5)CN(C5CCC(=O)NC5=O)C6=O)CC4(F)F)sc23)cc(OC)c1CN(C)C` (stereo partly drawn) [Compound D151], the DC50 was below 10 nM.
As to `COc1cc(-c2cn(C)c(=O)c3cc(C(=O)NC4CCN(c5cccc(OC6CCC(=O)NC6=O)c5)CC4)sc23)cc(OC)c1CN(C)C` (stereo not drawn) [Compound D108], the DC50 is below 10 nM.
`COc1cc(-c2cn(C)c(=O)c3ocnc23)cc(OC)c1CN1CCC2(CC1)CN(c1ccc3c(c1)C(=O)N(C1CCC(=O)NC1=O)C3)C2` (stereo not drawn) [Compound D217]: the DC50 was below 10 nM.
The same measure, in the same setting: the value for `COc1cc(-c2cn(C)c(=O)c3ccsc23)cc(OC)c1CN1CCC(CN2CCC3(CC2)CC(Oc2ccc4c(c2)CN(C2CCC(=O)NC2=O)C4=O)C3)CC1` (stereo not drawn) [Compound D220] was below 10 nM.
For `COc1cc(-c2cn(C)c(=O)c3cc(C(=O)NC4CCN(C)CC4(F)F)sc23)cc(OC)c1CN1CC(CN2CCC3(CC2)CN(c2ccc4c(c2)CN(C2CCC(=O)NC2=O)C4=O)C3)C1` (stereo not drawn) [Compound D104], the DC50 is below 10 nM.
On the same count and under the same terms, the value for `COc1cc(OC)cc(-c2cn(C)c(=O)c3cc(C(=O)NC4CCN(c5ccc6c(c5)C(=O)N(C5CCC(=O)NC5=O)C6)CC4)sc23)c1` (stereo not drawn) [Compound D109] was below 10 nM; that for `Cn1cc(-c2cccc(C(F)(F)F)c2)c2sc(C(=O)NC3CCN(c4ccc5c(c4)C(=O)N(C4CCC(=O)NC4=O)C5)CC3)cc2c1=O` (stereo not drawn) [Compound D128] was below 10 nM; that for `COc1cc(-c2cn(C)c(=O)c3cc(C(=O)NC4CCN(C)CC4(F)F)sc23)cc(OC)c1CN1CC(CN2CCC3(CC2)CN(c2ccc4c(c2)C(=O)N(C2CCC(=O)NC2=O)C4)C3)C1` (stereo not drawn) [Compound D188] was below 10 nM.
In the case of `COc1cc(-c2c(C)n(C)c(=O)c3cc(C(=O)NC4CCN(CCN5CCN(c6ccc7c(c6)C(=O)N(C6CCC(=O)NC6=O)C7)CC5)CC4(F)F)sc23)cc(OC)c1CN(C)C` (stereo not drawn) [Compound D171], the DC50 is above 10 nM.
Consider `COc1cc(-c2cn(C)c(=O)c3cc(C(=O)N[C@H]4CCN(C5CCN(c6ccc7c(c6)C(=O)N([C@@H]6CCC(=O)NC6=O)C7)CC5)CC4(F)F)sc23)cc(OC)c1CN(C)C` [Compound D140], for which the DC50 is below 10 nM.
On the same count and under the same terms, for `COc1cc(-c2cn(C)c(=O)c3cc(N4CCC4)sc23)cc(OC)c1CN1CCC(CCN2CCN(c3ccc4c(c3)C(=O)N(C3CCC(=O)NC3=O)C4)CC2)CC1` (stereo not drawn) [Compound D94] the value was below 10 nM; for `Cn1cc(-c2ccc(-c3ccc4c(c3)C(=O)N(C3CCC(=O)NC3=O)C4)c(C(F)(F)F)c2)c2sccc2c1=O` (stereo not drawn) [Compound D125], below 10 nM.
Take `COc1cc(-c2cn(C)c(=O)c3cc(C(=O)NC4CCN(c5ccc6c(c5)C(=O)N(C5CCC(=O)NC5=O)C6)C4)sc23)cc(OC)c1CN(C)C` (stereo not drawn) [Compound D114]: the DC50 was below 10 nM.
On to `COc1cc(-c2cn(C)c(=O)c3ccsc23)cc(OC)c1CN1CCC(CN2CCC3(CC2)CC(Oc2ccc4c(c2)C(=O)N(C2CCC(=O)NC2=O)C4)C3)CC1` (stereo not drawn) [Compound D174], for which the DC50 is below 10 nM.
For the molecule `COc1cc(-c2cn(C)c(=O)c3cc(C(=O)NC4CCN(C5CCN(c6ccc7c(c6)C(=O)N(C6CCC(=O)NC6=O)C7)CC5(F)F)CC4)sc23)cc(OC)c1CN(C)C` (stereo not drawn) [Compound D126], the DC50 is below 10 nM.
Regarding `CNC(=O)c1cc2c(=O)n(C)cc(-c3cc(OC)c(CN4CCC5(CC4)CN(c4ccc6c(c4)C(=O)N(C4CCC(=O)NC4=O)C6)C5)c(OC)c3)c2s1` (stereo not drawn) [Compound D138], the DC50 was below 10 nM.
Same read-out and setting: for `COc1cc(-c2cn(C)c(=O)c3cc(C(=O)N[C@H]4CCN(c5ccc6c(c5)C(=O)N(C5CCC(=O)NC5=O)C6)CC4(F)F)sc23)cc(OC)c1CN(C)C` (stereo partly drawn) [Compound D152] the value was below 10 nM; for `COc1cc(-c2cn(C)c(=O)c3cc(C(=O)NC4CCN(CCN5CCC6(CC5)CN(c5ccc7c(c5)C(=O)N(C5CCC(=O)NC5=O)C7)C6)CC4(F)F)sc23)cc(OC)c1CN(C)C` (stereo not drawn) [Compound D175], below 10 nM.
